# According to patent US10112929B2, “Lactams as inhibitors of rock” (BRISTOL-MYERS SQUIBB COMPANY, priority 2015, dated 2018):
# pIC50: −log10 of the molar value. Counter-ions that a name gives are not always drawn.
# Target: ROCK2 (Homo sapiens (Human), UniProt O75116)
# Assay: biochemical
# 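Further: rho kinase enzyme reaction halted with EDTA, phospho- and non-phospho peptide separated for read-out, kinase activity inhibition derived across a dose-response series, DMSO under 2%.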
# ROCK2, sequence (O75116 whole entry, species assumed): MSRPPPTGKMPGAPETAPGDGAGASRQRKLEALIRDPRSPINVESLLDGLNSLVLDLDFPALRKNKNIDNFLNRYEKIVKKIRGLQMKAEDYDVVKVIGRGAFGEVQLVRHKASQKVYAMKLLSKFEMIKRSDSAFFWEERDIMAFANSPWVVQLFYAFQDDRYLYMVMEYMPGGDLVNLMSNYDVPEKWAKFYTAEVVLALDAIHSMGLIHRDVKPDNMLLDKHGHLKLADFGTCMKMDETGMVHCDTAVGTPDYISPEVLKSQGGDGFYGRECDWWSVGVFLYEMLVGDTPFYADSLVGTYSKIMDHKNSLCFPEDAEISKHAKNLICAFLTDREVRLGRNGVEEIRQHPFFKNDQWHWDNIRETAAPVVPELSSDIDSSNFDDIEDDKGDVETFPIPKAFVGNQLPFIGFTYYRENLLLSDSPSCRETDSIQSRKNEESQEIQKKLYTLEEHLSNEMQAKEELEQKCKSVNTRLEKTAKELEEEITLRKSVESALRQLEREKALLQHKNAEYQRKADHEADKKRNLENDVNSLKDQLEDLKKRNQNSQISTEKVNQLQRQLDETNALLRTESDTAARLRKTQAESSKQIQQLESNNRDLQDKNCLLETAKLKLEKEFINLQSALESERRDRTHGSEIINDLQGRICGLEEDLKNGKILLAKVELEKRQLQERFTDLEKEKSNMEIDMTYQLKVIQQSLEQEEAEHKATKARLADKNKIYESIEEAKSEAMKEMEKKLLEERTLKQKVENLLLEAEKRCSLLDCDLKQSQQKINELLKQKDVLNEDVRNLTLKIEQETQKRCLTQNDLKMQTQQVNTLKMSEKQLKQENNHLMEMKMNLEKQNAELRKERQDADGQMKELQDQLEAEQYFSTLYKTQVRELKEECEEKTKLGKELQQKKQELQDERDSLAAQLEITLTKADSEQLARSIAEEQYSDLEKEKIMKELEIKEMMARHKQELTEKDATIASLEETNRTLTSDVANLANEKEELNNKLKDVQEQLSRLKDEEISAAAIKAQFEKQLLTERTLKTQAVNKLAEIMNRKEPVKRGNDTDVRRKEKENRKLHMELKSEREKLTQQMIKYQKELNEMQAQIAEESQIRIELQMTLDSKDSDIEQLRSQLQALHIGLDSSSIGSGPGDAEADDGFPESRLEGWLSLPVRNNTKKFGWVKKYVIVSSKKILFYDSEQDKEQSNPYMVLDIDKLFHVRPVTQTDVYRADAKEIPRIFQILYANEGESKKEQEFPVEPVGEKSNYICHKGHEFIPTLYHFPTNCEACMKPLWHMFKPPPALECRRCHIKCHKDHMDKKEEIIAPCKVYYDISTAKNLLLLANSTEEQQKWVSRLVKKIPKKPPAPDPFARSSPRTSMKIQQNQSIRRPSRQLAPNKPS
row,pIC50,SMILES
1,> 8.00,"COc1cccc(NC2CCN(c3ccc(-c4cn[nH]c4)c(OC)n3)C2=O)c1 (single isomer, unassigned) [Example 196, 1-(6-methoxy-5-(1H-pyrazol-4-yl)pyridin-2-yl)-3-((3-methoxyphenyl)amino) pyrrolidin-2-one]"
2,> 8.00,"COc1cccc(NC2CCN(c3ccc(-c4cn[nH]c4)c(F)c3F)C2=O)c1 (single isomer, unassigned) [Example 306, 1-(2,3-difluoro-4-(1H-pyrazol-4-yl)phenyl)-3-((3-methoxyphenyl)amino) pyrrolidin-2-one]"
3,> 8.00,"COc1cc(NC2CCN(c3ccc(-c4cn[nH]c4)c(Cl)c3)C2=O)ccc1F (single isomer, unassigned) [Example 161, 1-(3-chloro-4-(1H-pyrazol-4-yl)phenyl)-3-((4-fluoro-3-methoxyphenyl)amino) pyrrolidin-2-one]"
4,7.00 to 8.00,"COc1cccc(NC2CCN(c3ncc(-c4cn[nH]c4)c(OC)n3)C2=O)c1 (stereo not shown) [Example 132, 1-(4-Methoxy-5-(1H-pyrazol-4-yl)pyrimidin-2-yl)-3-((3-methoxyphenyl)amino) pyrrolidin-2-one]"
5,5.66 to 7.00,"COc1nc(N2CCC(N3CCC(F)(F)C3)C2=O)ccc1-c1cn[nH]c1 (racemic) [Example 284, 3,3-difluoro-1′-(6-methoxy-5-(1H-pyrazol-4-yl)pyridin-2-yl)-[1,3′-bipyrrolidin]-2′-one hydrochloride]"
6,> 8.00,"COc1cccc(NC2CCN(c3ccc(-c4c[nH]nc4C)c(OC)n3)C2=O)c1 (racemic) [Example 129, 1-(6-methoxy-5-(3-methyl-1H-pyrazol-4-yl)pyridin-2-yl)-3-((3-methoxyphenyl)amino)pyrrolidin-2-one]"
7,5.66 to 7.00,"COc1cc(F)cc(NC2CCN(c3ccc(-c4cn[nH]c4)c(C#N)c3)C2=O)c1 (single isomer, unassigned) [Example 374, 5-(3-((3-fluoro-5-methoxyphenyl)amino)-2-oxopyrrolidin-1-yl)-2-(1H-pyrazol-4-yl)benzonitrile]"
8,7.00 to 8.00,"CCc1cc(N2CCC(Nc3cc(F)cc(OC)c3)C2=O)ccc1-c1cn[nH]c1 (single isomer, unassigned) [Example 245, 1-(3-ethyl-4-(1H-pyrazol-4-yl)phenyl)-3-((3-fluoro-5-methoxyphenyl)amino) pyrrolidin-2-one]"
9,> 8.00,"O=C1C(Nc2cccc(F)c2)CCN1c1ccc(-c2cn[nH]c2)cc1 (stereo not shown) [Example 62, 1-(4-(1H-pyrazol-4-yl)phenyl)-3-((3-fluorophenyl)amino)pyrrolidin-2-one]"
10,> 8.00,"COc1cc(F)cc(NC2CCN(c3cc(F)c(-c4cn[nH]c4)cc3F)C2=O)c1 (single isomer, unassigned) [Example 352, 1-(2,5-difluoro-4-(1H-pyrazol-4-yl)phenyl)-3-((3-fluoro-5-methoxyphenyl)amino)pyrrolidin-2-one]"
11,> 8.00,"COc1cc(F)cc(NC2CCN(c3ccc(-c4cn[nH]c4)cc3)C2=O)c1 (single isomer, unassigned) [Example 26, 1-(4-(1H-pyrazol-4-yl)phenyl)-3-((3-fluoro-5-methoxyphenyl)amino)pyrrolidin-2-one]"
12,7.00 to 8.00,"O=C1C(Nc2cccc(OC(F)F)c2)CCN1c1ccc(-c2cn[nH]c2)cn1 (single isomer, unassigned) [Example 322, 1-(5-(1H-pyrazol-4-yl)pyridin-2-yl)-3-((3-(difluoromethoxy)phenyl)amino) pyrrolidin-2-one]"
13,5.66 to 7.00,"O=C1C(Nc2cccc(OCC3CC3)c2)CCN1c1ccc(-c2cn[nH]c2)cn1 (single isomer, unassigned) [Example 320, 1-(5-(1H-pyrazol-4-yl)pyridin-2-yl)-3-((3-(cyclopropylmethoxy)phenyl)amino) pyrrolidin-2-one]"
14,> 8.00,"O=C1[C@H](Nc2cccc(OCC3CC3)c2)CCN1c1ccc(-c2cn[nH]c2)cc1 (single isomer, unassigned) [Example 235, 1-(4-(1H-pyrazol-4-yl)phenyl)-3-((3-(cyclopropylmethoxy)phenyl)amino) pyrrolidin-2-one]"
15,> 8.00,"NC(=O)c1cccc(NC2CCN(c3ccc(-c4cn[nH]c4)cc3)C2=O)c1 (stereo not shown) [Example 388, 3-((1-(4-(1H-pyrazol-4-yl)phenyl)-2-oxopyrrolidin-3-yl)amino)benzamide]"
16,5.66 to 7.00,"COc1nc(N2CCC(N3CCN(c4ccc(O)cc4)CC3)C2=O)ccc1-c1cn[nH]c1 (racemic) [Example 288, 3-(4-(44iydroxyphenyl)piperazin-1-yl)-1-(6-methoxy-5-(1H-pyrazol-4-yl)pyridin-2-yl)pyrrolidin-2-one]"
17,> 8.00,"COc1cc(N2CCC(Nc3cccc(F)c3)C2=O)ccc1-c1cn[nH]c1 (stereo not shown) [Example 72, 3-((3-fluorophenyl)amino)-1-(3-methoxy-4-(1H-pyrazol-4-yl)phenyl)pyrrolidin-2-one]"
18,7.00 to 8.00,"O=C1C(Nc2cccnc2)CCN1c1ccc(-c2cn[nH]c2)cc1 (stereo not shown) [Example 9, 1-(4-(1H-pyrazol-4-yl)phenyl)-3-(pyridin-3-ylamino)pyrrolidin-2-one]"
19,> 8.00,"COc1nc(N2CCC(Nc3cccc(NC(C)=O)c3)C2=O)ccc1-c1cn[nH]c1 (racemic) [Example 260, N-(3-((1-(6-methoxy-5-(1H-pyrazol-4-yl)pyridin-2-yl)-2-oxopyrrolidin-3-yl)amino)phenyl)acetamide]"

row,pIC50,SMILES
1,7.00 to 8.00,"CCOc1cc(N2CCC(Nc3ccc(F)c(OC)c3)C2=O)ccc1-c1cn[nH]c1 (single isomer, unassigned) [Example 38, 1-(3-ethoxy-4-(1H-pyrazol-4-yl)phenyl)-3-((4-fluoro-3-methoxyphenyl)amino)pyrrolidin-2-one]"
2,7.00 to 8.00,"COc1cccc(NC2CCN(c3ccc(-c4cn[nH]c4)c(C#N)c3)C2=O)c1 (single isomer, unassigned) [Example 378, 5-(3-((3-methoxyphenyl)amino)-2-oxopyrrolidin-1-yl)-2-(1H-pyrazol-4-yl)benzonitrile]"
3,> 8.00,"COc1cccc(NC2CCN(c3cnc(-c4cn[nH]c4)c(OC)n3)C2=O)c1 (stereo not shown) [Example 134, 1-(6-Methoxy-5-(1H-pyrazol-4-yl)pyrazin-2-yl)-3-((3-methoxyphenyl)amino) pyrrolidin-2-one]"
4,7.00 to 8.00,"COc1cc(F)cc(NC2CCN(c3ccc(-c4cn[nH]c4)nc3)C2=O)c1 (single isomer, unassigned) [Example 301, 1-(6-(1H-pyrazol-4-yl)pyridin-3-yl)-3-((3-fluoro-5-methoxyphenyl)amino)pyrrolidin-2-one]"
5,5.66 to 7.00,"O=C1C(NCCc2ccccc2)CCN1c1ccc(-c2cn[nH]c2)cc1 (stereo not shown) [Example 59, 1-(4-(1H-pyrazol-4-yl)phenyl)-3-(phenethylamino)pyrrolidin-2-one, 2 TFA]"
6,7.00 to 8.00,"COc1ccc(Cl)c(NC2CCN(c3ccc(-c4cn[nH]c4)c(OC)n3)C2=O)c1 (racemic) [Example 261, 3-((2-chloro-5-methoxyphenyl)amino)-1-(6-methoxy-5-(1H-pyrazol-4-yl)pyridin-2-yl)pyrrolidin-2-one]"
7,5.66 to 7.00,"COc1ccc(N[C@@H]2CCN(c3ccc(-c4cn[nH]c4)cc3)C2=O)cc1OC [Example 389, (R)-1-(4-(1H-pyrazol-4-yl)phenyl)-3-((3,4-dimethoxyphenyl)amino)pyrrolidin-2-one]"
8,7.00 to 8.00,"COc1ccc(F)c(NC2CCN(c3ccc(-c4cn[nH]c4)c(C)c3)C2=O)c1 (single isomer, unassigned) [Example 364, 3-((2-fluoro-5-methoxyphenyl)amino)-1-(3-methyl-4-(1H-pyrazol-4-yl)phenyl) pyrrolidin-2-one]"
9,5.66 to 7.00,"O=C1C(NCc2ccccc2)CCN1c1ccc(-c2cn[nH]c2)cc1 (stereo not shown) [Example 57, 1-(4-(1H-pyrazol-4-yl)phenyl)-3-(benzylamino)pyrrolidin-2-one]"
10,7.00 to 8.00,"O=C1C(Nc2nc3ccccc3[nH]2)CCN1c1ccc(-c2cn[nH]c2)cc1 (single isomer, unassigned) [Example 56, 3-((1H-benzo[d]imidazol-2-yl)amino)-1-(4-(1H-pyrazol-4-yl)phenyl)pyrrolidin-2-one]"
11,7.00 to 8.00,"CCc1cc(N2CCC(Nc3cccc(OCC4CC4)c3)C2=O)ccc1-c1cn[nH]c1 (single isomer, unassigned) [Example 247, 3-((3-(cyclopropylmethoxy)phenyl)amino)-1-(3-ethyl-4-(1H-pyrazol-4-yl)phenyl)pyrrolidin-2-one]"
12,> 8.00,"CCOc1cccc(NC2CCN(c3ccc(-c4cn[nH]c4)cc3)C2=O)c1 (stereo not shown) [Example 6, 1-(4-(1H-pyrazol-4-yl)phenyl)-3-((3-ethoxyphenyl)amino)pyrrolidin-2-one]"
13,7.00 to 8.00,"O=C1C(Nc2cccc(F)c2)CCN1c1ccc(-c2cn[nH]c2)c(F)c1 (single isomer, unassigned) [Example 48, 1-(3-fluoro-4-(1H-pyrazol-4-yl)phenyl)-3-((3-fluorophenyl)amino)pyrrolidin-2-one]"
14,5.66 to 7.00,"COc1ccc(NC2CCN(c3ccc(-c4cn[nH]c4)cc3)C2=O)cc1F (single isomer, unassigned) [Example 13, 1-(4-(1H-Pyrazol-4-yl)phenyl)-3-((3-fluoro-4-methoxyphenyl)amino)pyrrolidin-2-one]"
15,5.66 to 7.00,"COc1nc(N2CCC(N3CCN(S(C)(=O)=O)CC3)C2=O)ccc1-c1cn[nH]c1 (racemic) [Example 286, 1-(6-methoxy-5-(1H-pyrazol-4-yl)pyridin-2-yl)-3-(4-(methylsulfonyl)piperazin-1-yl)pyrrolidin-2-one]"
16,5.66 to 7.00,"COc1cc(NC2CCN(c3ccc(-c4cn[nH]c4)c(OCCN(C)C)c3)C2=O)ccc1F (racemic) [Example 346, 1-(3-(2-(dimethylamino)ethoxy)-4-(1H-pyrazol-4-yl)phenyl)-3-((4-fluoro-3-methoxyphenyl)amino)pyrrolidin-2-one]"
17,5.66 to 7.00,"COc1nc(N2CCC(Nc3nc(C(C)(C)C)cs3)C2=O)ccc1-c1cn[nH]c1 (racemic) [Example 269, 3-((4-(tert-butyl)thiazol-2-yl)amino)-1-(6-methoxy-5-(1H-pyrazol-4-yl)pyridin-2-yl)pyrrolidin-2-one]"
18,5.66 to 7.00,"COc1nc(N2CCC(N3CCCC(C)(C)C3)C2=O)ccc1-c1cn[nH]c1 (racemic) [Example 278, 3-(3,3-dimethylpiperidin-1-yl)-1-(6-methoxy-5-(1H-pyrazol-4-yl)pyridin-2-yl)pyrrolidin-2-one]"
